Measurements taken from ChEMBL document CHEMBL5046322, “Discovery of SHR2415, a Novel Pyrrole-Fused Urea Scaffold ERK1/2 Inhibitor” (ACS Med Chem Lett, 2022).

Experiments:
[1] = molecular target: Mitogen-activated protein kinase 1 (Homo sapiens, UniProt P28482); experiment: Inhibition of ERK2 (unknown origin) measured after 2 hr by ADP-glo assay
COLO 205 [2] = experiment: Antiproliferative activity against human COLO 205 cells assessed as reduction in cell viability for 72 hrs by cell titre glo luminescence assay; format: functional, cell-based
COLO 205 [3] = experiment: Antitumor activity against human COLO 205 cells xenografted in BALB/c nude mouse assessed as TGI at 25 mg/kg, po measured after 14 days; format: functional; settings: COLO 205, po, 336 h, time 14 day, read-out: TGI
[4] = Cmax in tumor of BALB/c mouse xenografted with human COLO 205 cells at 25 mg/kg, po for 14 days; format: ADME, organism-based, Neoplasm; parameters: route oral, dose 25 mg/kg, time 14 day
[5] = Clearance in Sprague-Dawley rat plasma at 1 mg/kg, iv and measured after 24 hrs by LC/MS/MS analysis; format: ADME, organism-based
[6] = Oral bioavailability in Sprague-Dawley rat at 2 mg/kg; format: ADME, organism-based; settings: in vivo
[7] = molecular target: Glycogen synthase kinase-3 beta (Homo sapiens, UniProt P49841); experiment: Inhibition of GSK3beta (unknown origin)
Glycogen synthase kinase-3 beta, sequence (P49841 whole entry): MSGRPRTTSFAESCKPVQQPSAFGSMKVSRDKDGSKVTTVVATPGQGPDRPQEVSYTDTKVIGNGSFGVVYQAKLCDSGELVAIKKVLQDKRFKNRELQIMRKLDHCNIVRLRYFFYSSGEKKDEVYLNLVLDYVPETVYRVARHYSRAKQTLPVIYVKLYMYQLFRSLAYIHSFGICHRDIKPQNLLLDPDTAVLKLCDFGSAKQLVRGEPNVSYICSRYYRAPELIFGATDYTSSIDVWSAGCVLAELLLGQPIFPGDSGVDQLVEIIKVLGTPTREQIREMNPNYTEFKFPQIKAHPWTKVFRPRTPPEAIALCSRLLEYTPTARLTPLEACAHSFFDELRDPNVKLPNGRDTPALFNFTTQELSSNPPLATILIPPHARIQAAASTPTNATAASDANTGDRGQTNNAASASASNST

[8] = AUC (0 to t) in ICR mouse at 2 mg/kg, po; format: ADME, organism-based; parameters: dose 2 mg/kg; settings: in vivo
[9] = Clearance in Beagle dog plasma at 0.5 mg/kg, iv and measured after 24 hrs by LC/MS/MS analysis; format: ADME, organism-based, Canis lupus familiaris
[10] = Cmax in plasma of BALB/c mouse xenografted with human COLO 205 cells at 25 mg/kg, po for 14 days; format: ADME, organism-based; parameters: route oral, dose 25 mg/kg, time 14 day
[11] = AUC in tumor of BALB/c mouse xenografted with human COLO 205 cells at 25 mg/kg, po for 14 days; format: ADME, organism-based, Neoplasm; parameters: time 14 day, dose 25 mg/kg
[12] = Cmax in Sprague-Dawley rat plasma at 1 mg/kg, iv and measured after 24 hrs by LC/MS/MS analysis; format: ADME, organism-based; parameters: route intravenous, dose 1 mg/kg, time 24 hrs
[13] = Plasma protein binding in human; format: ADME, cell-free; settings: read-out: PPB (converted)
[14] = Cmax in Beagle dog plasma at 0.5 mg/kg, iv and measured after 24 hrs by LC/MS/MS analysis; format: ADME, organism-based, Canis lupus familiaris; parameters: route intravenous, time 24 hrs, dose 0.5 mg/kg
[15] = molecular target: Cyclin-dependent kinase 2 (Homo sapiens, UniProt P24941); experiment: Inhibition of CDK2 (unknown origin)
in vivo = settings: BALB/c, mouse, tumour, po, 25 mg/kg
Description: Ratio of AUC in tumor to plasma of BALB/c mouse xenografted with human COLO 205 cells at 25 mg/kg, po for 14 days

[16] = Half life in Sprague-Dawley rat at 2 mg/kg, po; settings: in vivo
[17] = AUC (0 to t) in Beagle dog at 2 mg/kg, po; format: ADME, organism-based, Canis lupus familiaris; parameters: dose 2 mg/kg; settings: in vivo
[18] = AUC in plasma of BALB/c mouse xenografted with human COLO 205 cells at 25 mg/kg, po for 14 days; format: ADME, organism-based; parameters: time 14 day, dose 25 mg/kg
[19] = Oral bioavailability in Beagle dog at 2 mg/kg; format: ADME, organism-based, Canis lupus familiaris; settings: in vivo
[20] = AUC (0 to t) in Sprague-Dawley rat at 2 mg/kg, po; format: ADME, organism-based; parameters: dose 2 mg/kg; settings: in vivo
[21] = Clearance in ICR mouse plasma at 1 mg/kg, iv and measured after 24 hrs by LC/MS/MS analysis mg/kg, iv; format: ADME, organism-based
[22] = Oral bioavailability in ICR mouse at 2 mg/kg; format: ADME, organism-based; settings: in vivo
[23] = Half life in Beagle dog at 2 mg/kg, po; settings: in vivo
[24] = Cmax in plasma of BALB/c mouse xenografted with human COLO 205 cells at 50 mg/kg, po for 14 days; format: ADME, organism-based; parameters: route oral, dose 50 mg/kg, time 14 day
COLO 205 [25] = experiment: Antitumor activity against human COLO 205 cells xenografted in BALB/c nude mouse assessed as TGI at 50 mg/kg, po measured after 14 days; format: functional; settings: COLO 205, po, 336 h, time 14 day, read-out: TGI
[26] = AUC in tumor of BALB/c mouse xenografted with human COLO 205 cells at 50 mg/kg, po for 14 days; format: ADME, organism-based, Neoplasm; parameters: dose 50 mg/kg, time 14 day
[27] = Cmax in tumor of BALB/c mouse xenografted with human COLO 205 cells at 50 mg/kg, po for 14 days; format: ADME, organism-based, Neoplasm; parameters: route oral, dose 50 mg/kg, time 14 day
[28] = AUC in plasma of BALB/c mouse xenografted with human COLO 205 cells at 50 mg/kg, po for 14 days; format: ADME, organism-based; parameters: time 14 day, dose 50 mg/kg
[29] = Ratio of AUC in tumor to plasma of BALB/c mouse xenografted with human COLO 205 cells at 50 mg/kg, po for 14 days; format: ADME, organism-based; settings: tumor and plasma, time 14 day, read-out: Ratio AUC
[30] = Cmax in ICR mouse plasma at 1 mg/kg, iv and measured after 24 hrs by LC/MS/MS analysis; format: ADME, organism-based; parameters: route intravenous, dose 1 mg/kg, time 24 hrs
[31] = Half life in ICR mouse at 2 mg/kg, po; settings: in vivo
Cytochrome P450 2D6 = Cytochrome P450 2D6 (Homo sapiens, UniProt P10635); experiment: Inhibition of CYP2D6 in human liver microsomes
Cytochrome P450 2D6, sequence (P10635 whole entry): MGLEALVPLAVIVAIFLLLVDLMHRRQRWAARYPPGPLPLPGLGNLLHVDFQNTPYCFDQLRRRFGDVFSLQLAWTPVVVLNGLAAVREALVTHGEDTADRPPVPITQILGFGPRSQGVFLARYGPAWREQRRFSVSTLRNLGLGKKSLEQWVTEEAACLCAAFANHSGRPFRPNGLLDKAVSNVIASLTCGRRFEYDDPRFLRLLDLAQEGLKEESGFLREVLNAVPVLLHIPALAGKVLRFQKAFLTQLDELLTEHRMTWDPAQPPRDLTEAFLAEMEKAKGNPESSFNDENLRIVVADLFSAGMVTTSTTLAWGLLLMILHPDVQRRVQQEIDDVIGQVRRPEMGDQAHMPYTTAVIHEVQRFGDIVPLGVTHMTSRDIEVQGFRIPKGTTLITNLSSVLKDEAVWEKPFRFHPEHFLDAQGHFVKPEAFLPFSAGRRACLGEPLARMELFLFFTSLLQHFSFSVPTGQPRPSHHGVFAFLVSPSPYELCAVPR

Cytochrome P450 1A2 = molecular target: T1, Cytochrome P450 1A2 (Homo sapiens, UniProt P05177); experiment: Inhibition of CYP1A2 in human liver microsomes
T1 sequence (P05177 whole entry): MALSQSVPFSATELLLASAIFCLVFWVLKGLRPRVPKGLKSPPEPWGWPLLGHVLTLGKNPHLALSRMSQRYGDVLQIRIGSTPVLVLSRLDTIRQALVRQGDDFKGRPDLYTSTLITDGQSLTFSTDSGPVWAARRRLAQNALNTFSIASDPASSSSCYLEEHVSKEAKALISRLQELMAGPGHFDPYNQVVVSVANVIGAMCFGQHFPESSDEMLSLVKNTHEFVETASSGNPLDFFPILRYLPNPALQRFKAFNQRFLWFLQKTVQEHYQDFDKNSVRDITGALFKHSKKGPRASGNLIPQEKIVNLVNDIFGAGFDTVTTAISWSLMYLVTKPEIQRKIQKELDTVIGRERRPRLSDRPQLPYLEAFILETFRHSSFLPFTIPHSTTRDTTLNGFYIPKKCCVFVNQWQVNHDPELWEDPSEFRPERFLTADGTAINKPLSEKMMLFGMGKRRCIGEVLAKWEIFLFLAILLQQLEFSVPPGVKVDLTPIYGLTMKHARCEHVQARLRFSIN

Cytochrome P450 3A4 = Cytochrome P450 3A4 (Homo sapiens, UniProt P08684); experiment: Inhibition of CYP3A4 in human liver microsomes
Cytochrome P450 3A4, sequence (P08684 whole entry): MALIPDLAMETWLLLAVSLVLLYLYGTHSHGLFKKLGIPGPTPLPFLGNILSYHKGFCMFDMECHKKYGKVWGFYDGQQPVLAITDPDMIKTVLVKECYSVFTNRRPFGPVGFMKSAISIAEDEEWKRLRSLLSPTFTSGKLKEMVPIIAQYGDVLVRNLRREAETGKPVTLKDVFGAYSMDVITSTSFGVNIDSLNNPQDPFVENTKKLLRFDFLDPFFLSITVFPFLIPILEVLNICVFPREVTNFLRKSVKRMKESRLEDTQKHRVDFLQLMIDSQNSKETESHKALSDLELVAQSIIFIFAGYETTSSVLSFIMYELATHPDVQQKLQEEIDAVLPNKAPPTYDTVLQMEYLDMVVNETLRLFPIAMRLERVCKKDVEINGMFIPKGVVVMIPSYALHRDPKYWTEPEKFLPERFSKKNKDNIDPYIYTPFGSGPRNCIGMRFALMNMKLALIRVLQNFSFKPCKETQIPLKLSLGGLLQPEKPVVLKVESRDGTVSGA

Cytochrome P450 2C9 = Cytochrome P450 2C9 (Homo sapiens, UniProt P11712); experiment: Inhibition of CYP2C9 in human liver microsomes
Cytochrome P450 2C9, sequence (P11712 whole entry): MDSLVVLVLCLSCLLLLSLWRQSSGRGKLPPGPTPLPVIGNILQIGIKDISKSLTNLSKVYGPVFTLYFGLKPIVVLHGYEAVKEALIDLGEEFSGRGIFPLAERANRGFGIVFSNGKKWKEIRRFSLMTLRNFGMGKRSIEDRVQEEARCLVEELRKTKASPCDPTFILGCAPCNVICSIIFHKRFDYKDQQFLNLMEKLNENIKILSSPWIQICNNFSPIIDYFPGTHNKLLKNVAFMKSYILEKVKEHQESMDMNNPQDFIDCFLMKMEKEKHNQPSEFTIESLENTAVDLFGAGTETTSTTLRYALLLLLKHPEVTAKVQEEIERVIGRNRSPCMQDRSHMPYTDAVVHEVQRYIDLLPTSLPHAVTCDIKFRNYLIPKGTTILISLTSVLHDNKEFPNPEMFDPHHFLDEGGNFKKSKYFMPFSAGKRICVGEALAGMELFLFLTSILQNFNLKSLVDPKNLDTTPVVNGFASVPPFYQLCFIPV

Cytochrome P450 2C19 = Cytochrome P450 2C19 (Homo sapiens, UniProt P33261); experiment: Inhibition of CYP2C19 in human liver microsomes
Cytochrome P450 2C19, sequence (P33261 whole entry): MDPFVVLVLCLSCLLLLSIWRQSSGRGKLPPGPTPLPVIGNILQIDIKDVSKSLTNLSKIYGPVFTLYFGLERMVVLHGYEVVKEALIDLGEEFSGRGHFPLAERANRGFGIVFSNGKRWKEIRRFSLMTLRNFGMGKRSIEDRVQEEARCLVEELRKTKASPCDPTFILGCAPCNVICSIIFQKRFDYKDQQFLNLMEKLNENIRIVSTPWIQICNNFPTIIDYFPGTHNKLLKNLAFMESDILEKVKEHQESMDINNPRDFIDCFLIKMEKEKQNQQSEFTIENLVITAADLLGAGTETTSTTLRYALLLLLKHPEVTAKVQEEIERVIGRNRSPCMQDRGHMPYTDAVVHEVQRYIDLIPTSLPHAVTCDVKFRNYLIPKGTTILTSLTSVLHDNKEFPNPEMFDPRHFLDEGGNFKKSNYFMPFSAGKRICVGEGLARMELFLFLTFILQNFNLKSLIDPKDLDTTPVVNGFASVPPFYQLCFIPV

[32] = Homo sapiens, COLO 205, 72 h, read-out: IC50

Mitogen-activated protein kinase 1, sequence (P28482 whole entry): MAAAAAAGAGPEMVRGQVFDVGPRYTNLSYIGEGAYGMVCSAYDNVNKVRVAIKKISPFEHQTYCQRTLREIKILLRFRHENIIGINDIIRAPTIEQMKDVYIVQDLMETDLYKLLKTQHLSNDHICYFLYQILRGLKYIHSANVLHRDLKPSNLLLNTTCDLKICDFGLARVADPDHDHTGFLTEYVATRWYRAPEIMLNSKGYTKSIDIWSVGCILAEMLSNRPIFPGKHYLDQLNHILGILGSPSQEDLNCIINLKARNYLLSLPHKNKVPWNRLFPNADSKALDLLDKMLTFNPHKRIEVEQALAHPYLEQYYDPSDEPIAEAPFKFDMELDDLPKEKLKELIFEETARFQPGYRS

Cc1cnc(Nc2ccnn2C)nc1-c1cc2n(c1)C(=O)N([C@H](CN)c1cccc(Cl)c1)C2
IC50 [1]: 18.3 nM
IC50 (COLO 205 [2]; colo 205): Not Active

Cc1cnc(Nc2ccnn2C)nc1N1Cc2nn(C(CO)c3cccc(Cl)c3)c(C)c2C1 (racemic)
IC50 [1]: 99 nM
IC50 (COLO 205 [2]; [32]): 964 nM

Cc1cnc(Nc2ccnn2C)nc1-c1cc2n(c1)C(=O)N([C@H](CO)c1cccc(Cl)c1)C2
inhibition in vivo at 25 mg/kg (COLO 205 [3]): 112%
Cmax [4]: 9460 ng/mL
clearance [5]: 25.3 mL/min/kg
bioavailability [6]: 45.8%
IC50 [7]: 64.3 nM
AUC(0-t) [8]: 2460 ng·h/mL
clearance [9]: 10.5 mL/min/kg
Cmax [10]: 5150 ng/mL
AUC at 336 h [11]: 30300 ng·h/mL
Cmax [12]: 219 ng/mL
fraction unbound [13]: 0.016
IC50 (COLO 205 [2]; [32]): 44.6 nM
Cmax [14]: 526 ng/mL
IC50 [15]: 99.4 nM
Kp at 336 h (in vivo): 1.42
half-life [16]: 2.1 h
AUC(0-t) [17]: 3270 ng·h/mL
AUC at 336 h [18]: 21400 ng·h/mL
bioavailability [19]: 101%
AUC(0-t) [20]: 726 ng·h/mL
clearance [21]: 12.2 mL/min/kg
bioavailability [22]: 90.8%
half-life [23]: 3.2 h

Cc1cnc(Nc2ccnn2C)nc1-c1cn2c(c1F)CN([C@H](CO)c1cccc(Cl)c1)C2=O
IC50 [1]: 130 nM
IC50 (COLO 205 [2]; colo 205): Not Active

CC(C)Nc1cc(-c2c[nH]c(C(=O)N[C@H](CO)c3cccc(Cl)c3)c2)c(Cl)cn1 [ULIXERTINIB]
Cmax [24]: 32300 ng/mL
IC50 (COLO 205 [2]; [32]): 103 nM
inhibition in vivo at 50 mg/kg (COLO 205 [25]): 63%
AUC at 336 h [26]: 48800 ng·h/mL
Cmax [27]: 13000 ng/mL
AUC at 336 h [28]: 114000 ng·h/mL
Kp at 336 h [29]: 0.43

Cn1nccc1Nc1nccc(N2CCN(C(CO)c3cccc(Cl)c3)C(=O)C2)n1 (racemic)
IC50 [1]: 240 nM
IC50 (COLO 205 [2]; [32]): > 10000 nM

Cc1cnc(NC(C)C)nc1-c1cc2n(c1)C(=O)N([C@H](CO)c1cccc(Cl)c1)C2
IC50 [1]: 188 nM
IC50 (COLO 205 [2]; colo 205): Not Active

Cc1cnc(Nc2ccnn2C)nc1-c1cc2n(c1)C(=O)N([C@H](CO)c1ccc(F)c(Cl)c1)C2
IC50 [1]: 9.5 nM
IC50 (COLO 205 [2]; [32]): 94.9 nM

Cc1cnc(Nc2ccnn2C)nc1N1Cc2cn(C(CO)c3cccc(Cl)c3)nc2C1 (racemic)
IC50 [1]: 14.4 nM
IC50 (COLO 205 [2]; [32]): 248 nM

Cn1nccc1Nc1nccc(-c2cn3c(n2)CN([C@H](CO)c2cccc(Cl)c2)C3=O)n1
IC50 [1]: 4200 nM
IC50 (COLO 205 [2]; colo 205): Not Active

Cc1cnc(Nc2ccnn2C)nc1-c1cc2n(c1)C(=O)N([C@H](C)c1cccc(Cl)c1)C2
IC50 (COLO 205 [2]; colo 205): Not Active

O=C1N([C@H](CO)c2cccc(Cl)c2)Cc2cc(-c3nc(NC4CCOCC4)ncc3Cl)cn21
IC50 [1]: 5.8 nM
IC50 (COLO 205 [2]; [32]): 104 nM

Cc1cnc(Nc2ccnn2C)nc1-c1ccc2c(c1)CCN([C@H](CO)c1cccc(Cl)c1)C2=O
IC50 [1]: 9.2 nM
IC50 (COLO 205 [2]; [32]): 856 nM

CC(C)Nc1cc(-c2cc3n(c2)C(=O)N([C@H](CO)c2cccc(Cl)c2)C3)c(Cl)cn1
IC50 [1]: 237 nM
IC50 (COLO 205 [2]; colo 205): Not Active

C[C@@H](CO)Nc1ncc(Cl)c(-c2cc3n(c2)C(=O)N([C@H](CO)c2cccc(Cl)c2)C3)n1
IC50 (COLO 205 [2]; [32]): 81 nM

COc1cc(F)cc([C@@H](CO)N2Cc3cc(-c4nc(Nc5ccnn5C)ncc4C)cn3C2=O)c1
IC50 [1]: 2.4 nM
IC50 (COLO 205 [2]; [32]): 89.6 nM

Cc1cnc(Nc2ccnn2C)nc1-c1cc2n(c1)C(=O)N([C@H](CO)c1cccc(Cl)c1)CC2
clearance [5]: 38.5 mL/min/kg
bioavailability [6]: 29.4%
Cmax [30]: 275 ng/mL
AUC(0-t) [8]: 277 ng·h/mL
Cmax [12]: 84.3 ng/mL
IC50 (COLO 205 [2]; [32]): 77.1 nM
half-life [16]: 1.6 h
AUC(0-t) [20]: 258 ng·h/mL
clearance [21]: 63.1 mL/min/kg
bioavailability [22]: 54%
half-life [31]: 0.82 h

Cc1cnc(Nc2ccnn2C)nc1-c1ccc2c(c1)CN([C@H](CO)c1cccc(Cl)c1)C2=O
IC50 [1]: 4830 nM
IC50 (COLO 205 [2]; colo 205): Not Active

Cn1nccc1Nc1ncc(Cl)c(-c2cc3n(c2)C(=O)N([C@H](CO)c2cccc(Cl)c2)C3)n1
IC50 (Cytochrome P450 2D6): 350 nM
IC50 (Cytochrome P450 1A2): > 5000 nM
IC50 (Cytochrome P450 3A4): > 5000 nM
IC50 (COLO 205 [2]; [32]): 31.9 nM
IC50 (Cytochrome P450 2C9): > 5000 nM
IC50 (Cytochrome P450 2C19): > 5000 nM

CNC[C@H](c1cccc(Cl)c1)N1Cc2cc(-c3nc(Nc4ccnn4C)ncc3C)cn2C1=O
IC50 [1]: 1.5 nM
IC50 (COLO 205 [2]; [32]): 94.5 nM

C[C@H](CO)Nc1ncc(Cl)c(-c2cc3n(c2)C(=O)N([C@H](CO)c2cccc(Cl)c2)C3)n1
IC50 (COLO 205 [2]; colo 205): Not Active

Cc1cnc(Nc2ccnn2C)nc1-c1cc2n(c1)C(=O)N([C@H](CO)c1ccc(Cl)c(F)c1)C2
IC50 [1]: 4.8 nM
IC50 (COLO 205 [2]; [32]): 92.2 nM

Cc1cnc(Nc2ccnn2C)nc1-c1cc2n(c1)C(=O)N(Cc1ccc(F)c(F)c1)C2
IC50 (COLO 205 [2]; [32]): 293 nM

Cn1nccc1Nc1nccc(N2CC[C@H](C(=O)N[C@H](CO)c3cccc(Cl)c3)C2)n1
IC50 [1]: 201 nM
IC50 (COLO 205 [2]; [32]): > 10000 nM
